According to patent US12410160B2 (Gilead Sciences, Inc., priority 2021, dated 2025):
Like-named read-outs stand apart in the source and are kept apart here.

How the values were obtained:
[1] = target: human KHK-C (Homo sapiens (Human), UniProt P50053); assay: KHK Biochemical Assay (IC50), ADP-Glo, KHK-C; settings: average of at least two separate assays
In short: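 Luminescent ADP-Glo read-out of ADP made by His-tagged KHK (BL21 (DE3) expression, Ni-NTA). Enzyme and compound sat together 30 min before ATP/fructose addition, then reacted 4 h at RT in Hepes pH 7.4 buffer with KCl, MgCl2, Triton-X. Quench 1 h, detection 1 h.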

[2] = test system: HepG2 cells; assay: F1P Cell-Based Assay (EC50), 13C6-fructose-1-phosphate in HepG2 cells (cell culture medium or 50% human plasma); settings: Homo sapiens
Protocol: F1P Cell-Based Assay (EC50)
Compounds were serially diluted (1:3) in DMSO. The LabCyte ECHO Acoustic dispenser system was used to pre-spot the assay plates (Greiner, Catalog #781091) with 400 nL (200-fold final dilution in 80 μL assay volume) of compound. 25,000 cells/well HepG2 cells (ATCC Catalog #HB-8065) were plated in a 40 μL volume/well in DMEM medium with 4.5 g/L glucose, 1× Penicillin-Streptomycin-Glutamine, and 10% FBS, using a BioTEK dispenser in a biological hood and incubated overnight at 37° C., 5% CO2, 90% humidity. 40 μL/well serum free assay medium (for F1P assay in cell culture medium), or 40 μL/well 100% human plasma (for F1P assay in 50% human plasma) were then added to the plates on the following day, and incubated for 1 hour at 37° C., 5% CO2, 90% humidity. ^13C6-labelled fructose (Sigma, Catalog #587621) in sterile PBS was added to the plates at a final concentration of 5 mM. The plates were incubated for 2 hours at 37° C., 5% CO2, 90% humidity. The assay was quenched by washing the cells with sterile PBS and adding 60 μL/well of 80% (v/v) methanol, 2 mM ammonium acetate and 2.5 μM Crotonyl-CoA, using a BioTEK washer-dispenser system. The plates were then sealed and stored in the −80° C. freezer until ready for RapidFire readout. ^13C6-fructose-1-phosphate in individual wells was quantified using the Agilent RapidFire High-Throughput MS system in negative mode using a […]. Mobile Phase 1 consisted of 20 mM ammonium acetate with 0.05% acetic acid in 100% methanol. Mobile phase 2 consisted of 5 mM octylamine in water (pH adjusted to 5 using acetic acid). F1P signals in individual wells were normalized by crotonyl CoA internal control.

[3] = HepG2, HepG2 cells, 50% human plasma, read-out: F1P 50% HP EC50
[4] = HepG2, read-out: F1P 10% FBS EC50, HepG2 cells, cell culture medium (10% FBS)

Chain of human KHK-C (P50053 whole entry): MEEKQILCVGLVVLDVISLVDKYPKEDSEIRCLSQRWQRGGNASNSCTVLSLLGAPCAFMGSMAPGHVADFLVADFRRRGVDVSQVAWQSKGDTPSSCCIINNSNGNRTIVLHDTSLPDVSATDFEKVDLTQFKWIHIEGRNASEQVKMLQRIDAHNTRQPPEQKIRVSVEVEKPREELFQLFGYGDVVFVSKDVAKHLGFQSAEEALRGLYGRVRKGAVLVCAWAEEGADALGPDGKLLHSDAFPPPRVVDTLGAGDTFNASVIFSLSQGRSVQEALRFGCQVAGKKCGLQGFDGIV

| Compound | IC50 [1] | EC50 [2, 3] | EC50 [2, 4] | IC50 ([1]; ADP-Glo) |
| --- | --- | --- | --- | --- |
| C[C@H]1[C@H](O)CN1c1nc(-c2ccc([C@@H](N)CC#N)cc2)c2c(n1)C(F)(F)CC2 (single isomer, unassigned) [Example 779] | 7.1 nM | 37.7 nM | 47.5 nM | – |
| NC1(c2ccc(-c3nc(N4CC(F)(F)[C@H]4CO)nc4c3CCC4(F)F)cc2)CS(=O)(=O)C1 (single isomer, unassigned) [Example 783] | 98.7 nM | > 500 nM | > 500 nM | – |
| NC1(c2ccc(-c3nc(N4CC(F)(F)[C@@H]4CO)nc4c3CCC4(F)F)cc2)CS(=O)(=O)C1 (single isomer, unassigned) [Example 784] | 7.9 nM | 91.9 nM | 119 nM | – |
| C[C@H]1[C@H](O)CN1c1nc(-c2ccc3c(c2)CCC32COC(=O)N2)c2c(n1)C(F)(F)CC2 (stereo partly drawn) [Example 474, 5-(7,7-difluoro-2-((2S,3R)-3-hydroxy-2-methylazetidin-1-yl)-6,7-dihydro-5H-cyclopenta[d]pyrimidin-4-yl)-2,3-dihydrospiro[indene-1,4′-oxazolidin]-2′-one] | 1 nM | 45.1 nM | 22.5 nM | – |
| C[C@H]1[C@H](O)CN1c1nc(-c2ccc3c(c2)OCC32COC(=O)N2)c2c(n1)C(F)(F)CC2 (stereo partly drawn) [Example 481, 6-(7,7-difluoro-2-((2S,3R)-3-hydroxy-2-methylazetidin-1-yl)-6,7-dihydro-5H-cyclopenta[d]pyrimidin-4-yl)-2H-spiro[benzofuran-3,4′-oxazolidin]-2′-one] | 0.3 nM | 43 nM | 6.6 nM | – |
| C[C@H]1CCN1c1nc2c(c(-c3cnc(C4(N)COC4)cn3)n1)CCC2 [Example 507, (S)-3-(5-(2-(2-methylazetidin-1-yl)-6,7-dihydro-5H-cyclopenta[d]pyrimidin-4-yl)pyrazin-2-yl)oxetan-3-amine] | 73.6 nM | 247 nM | 138 nM | – |

Second part, the compound after the results:

| IC50 [1] | EC50 [2, 3] | EC50 [2, 4] | IC50 ([1]; ADP-Glo) | Compound |
| --- | --- | --- | --- | --- |
| 10.7 nM | > 500 nM | 78.9 nM | – | C[C@H]1[C@H](O)CN1c1nc(-c2ccc3c(c2)C(C)(C)C[C@H]3NS(C)(=O)=O)c2c(n1)C(F)(F)CC2 (single isomer, unassigned) [Example 631] |
| 3.1 nM | 17.2 nM | 22.6 nM | – | C[C@H]1[C@H](O)CN1c1nc(-c2ccc3c(c2)S(=O)(=O)C[C@@H]3N)c2c(n1)C(F)(F)CC2 (single isomer, unassigned) [Example 662] |
| – | 40.3 nM | 11.2 nM | 0.7 nM | C[C@H]1[C@H](O)CN1c1nc(-c2cc(F)c3c(c2)OC[C@H]3NS(C)(=O)=O)c2c(n1)C(F)(F)CC2 (single isomer, unassigned) [Example 812] |
| 7.5 nM | 111 nM | 63.5 nM | – | C[C@H]1[C@H](O)CN1c1nc(-c2ccc3c(c2)CC[C@H]3NS(C)(=O)=O)c2c(n1)C(F)(F)CC2 [Example 473, N—((R)-5-(7,7-difluoro-2-((2S,3R)-3-hydroxy-2-methylazetidin-1-yl)-6,7-dihydro-5H-cyclopenta[d]pyrimidin-4-yl)-2,3-dihydro-1H-inden-1-yl)methanesulfonamide] |
| 0.4 nM | 25.9 nM | 6 nM | – | COc1cc(-c2nc(N3C[C@@H](O)[C@@H]3C)nc3c2CCC3(F)F)cc2c1C(NS(C)(=O)=O)CO2 (stereo partly drawn) [Example 477, N-(6-(7,7-difluoro-2-((2S,3R)-3-hydroxy-2-methylazetidin-1-yl)-6,7-dihydro-5H-cyclopenta[d]pyrimidin-4-yl)-4-methoxy-2,3-dihydrobenzofuran-3-yl)methanesulfonamide] |
| 0.6 nM | 23.7 nM | 9.4 nM | – | [2H]C1([2H])[C@@H](O)[C@H](C)N1c1nc(-c2ccc3c(c2)OC[C@@H]3NS(C)(=O)=O)c2c(n1)C(F)(F)CC2 [Example 480, N—((R)-6-(7,7-difluoro-2-((2S,3R)-3-hydroxy-2-methylazetidin-1-yl-4,4-d2)-6,7-dihydro-5H-cyclopenta[d]pyrimidin-4-yl)-2,3-dihydrobenzofuran-3-yl)methanesulfonamide] |
